Assay results from PubChem BioAssay AID1963865 (Molecular Pharmacology Branch, DTP, NCI, 2024).

System: KRAS PDC multicell spheroid viability
Test: Anticancer human tumor 825966-067-R-J1-PDC patient-derived colon carcinoma cell line growth inhibition [KRAS2]
Conditions: for IC50: curve of first compound; for viability, T/C: stronger effect = lower value
Method in brief: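 KRAS-mutant tumor cells were grown as spheroids with HUVEC endothelial cells and human MSCs as stroma. Targeted agents were tested alone and with KRAS pathway inhibitors. Doses started at or near clinical Cmax, or 10 microM, descending half-log.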
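Also: spheroids exposed to compounds for 7 days.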
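For viability, T/C in this document: 100% = DMSO vehicle control viability.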

Compound: Cn1nccc1Nc1nccc(-c2cc3c(s2)C(C)(C)N(CCN2CCOCC2)C3=O)n1 + C=CC(=O)N1CCN(c2nc(=O)n(-c3c(C)ccnc3C(C)C)c3nc(-c4c(O)cccc4F)c(F)cc23)C(C)C1
- IC50 (second compound 0.1 µM): > 10 µM
- IC50 (second compound 0.316 µM): > 10 µM
- IC50 (second compound 1 µM): 7.09 µM
- IC50 (second compound 3.16 µM): > 10 µM
- IC50 (second compound 10 µM): > 10 µM
- viability, T/C (second compound 0.1 µM, first compound 0.0316 µM): 89.9%
- viability, T/C (second compound 0.1 µM, first compound 0.1 µM): 101%
- viability, T/C (second compound 0.1 µM, first compound 0.316 µM): 119%
- viability, T/C (second compound 0.1 µM, first compound 1 µM): 100%
- viability, T/C (second compound 0.1 µM, first compound 3.16 µM): 81.3%
- viability, T/C (second compound 0.1 µM, first compound 10 µM): 85.8%
- viability, T/C (second compound 0.316 µM, first compound 0.0316 µM): 84.2%
- viability, T/C (second compound 0.316 µM, first compound 0.1 µM): 91.3%
- viability, T/C (second compound 0.316 µM, first compound 0.316 µM): 122%
- viability, T/C (second compound 0.316 µM, first compound 1 µM): 107%
- viability, T/C (second compound 0.316 µM, first compound 3.16 µM): 83.2%
- viability, T/C (second compound 0.316 µM, first compound 10 µM): 72.2%
- viability, T/C (second compound 1 µM, first compound 0.0316 µM): 86.9%
- viability, T/C (second compound 1 µM, first compound 0.1 µM): 83.6%
- viability, T/C (second compound 1 µM, first compound 0.316 µM): 103%
- viability, T/C (second compound 1 µM, first compound 1 µM): 98.7%
- viability, T/C (second compound 1 µM, first compound 3.16 µM): 78.4%
- viability, T/C (second compound 1 µM, first compound 10 µM): 38%
- viability, T/C (second compound 3.16 µM, first compound 0.0316 µM): 95.3%
- viability, T/C (second compound 3.16 µM, first compound 0.1 µM): 95.7%
- viability, T/C (second compound 3.16 µM, first compound 0.316 µM): 111%
- viability, T/C (second compound 3.16 µM, first compound 1 µM): 82.8%
- viability, T/C (second compound 3.16 µM, first compound 3.16 µM): 77.7%
- viability, T/C (second compound 3.16 µM, first compound 10 µM): 67%
- viability, T/C (second compound 10 µM, first compound 0.0316 µM): 73.4%
- viability, T/C (second compound 10 µM, first compound 0.1 µM): 86.5%
- viability, T/C (second compound 10 µM, first compound 0.316 µM): 92.1%
- viability, T/C (second compound 10 µM, first compound 1 µM): 82.5%
- viability, T/C (second compound 10 µM, first compound 3.16 µM): 77.8%
- viability, T/C (second compound 10 µM, first compound 10 µM): 73%
